A short description of one data set: water solubility. Format: physicochemical.
Data set [1] has as its system liver damage induced by carbon tetrachloride. In words: Protective (Controlling) effect on liver damage induced by carbon tetrachloride. Format: in vivo, mice (dd strain). Conditions: 250 mg/kg p.o., CCl4 0.05 ml/kg after 6 h, 24 h; for p-GPT: CCl4 alone >2,100; for Liver Damage Index: average of 5 mice, 0 Normal, 2 Slightly recognized, 4 Clearly observable damage, 6 Heavy damage, CCl4 alone 5.0. Summed up:
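Six-week-old male dd mice received compound at 250 mg/kg orally in olive oil or diethyleneglycol, then carbon tetrachloride 0.05 ml/kg orally 6 h later.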

In data set [2] the test system is liver damage induced by α-naphthyl isothiocyanate (ANIT). Put plainly: Protective effect on liver damage induced by ANIT (Method 1). It counts as in vivo, mice. Conditions: Table 3-1, 2 x 250 mg/kg p.o., ANIT 35 mg/kg p.o., 24 h; for Alkaline phosphatase activity: control 3.3, ANIT alone 5.3; for p-GPT: control 7.4, ANIT alone 324.0. The text has this:
Protective effect on liver damage induced by α-naphthyl isothiocyanate (referred to as "ANIT", hereinafter).
It is well known that experimental cholestasis is accomplished by administration with ANIT in mice and rats, and studied as a cholestasis model in human being.
ANIT and CCl4 induce necrosis in the liver. ANIT causes it as small focci in perilobular parenchyna and CCl4 causes centrilobular parenchymal coagulation necrosis.
From these information, the elevation of plasma GPT activity in these models are thought to have defferent characteristics.
Test compounds, dissolved or suspended in olive oil or diethyleneglycol, were orally administered 2 times at intervals of 3 hrs to mice at the dose of 250 mg/kg. At 3 hrs after the second administration with test compounds, ANIT was administered orally at 35 mg/kg.
Mice were sacrificed at 24 hrs after ANIT administration and blood samples were collected. The blood samples were centrifuged and plasma was obtained.
Plasma GPT activity and alkaline phosphatase activity were determined by Reitman & Frankel's method and Bessey-Lowry's method, respectively. The activity was expressed with Karmen Unit and Bessey-Lowry Unit, respectively.

Data set [3] in a line: acute oral toxicity (LD50). Conditions: in vivo, male rat. As to the method:
The compounds represented by the general formula (I) are low in toxicity to mammals.
Their acute oral toxicities to male rat expressed as LD50 values are shown below.
For example, the LD50 values of the compound No. 1, No. 2, No. 3, No. 8 and No. 12 are 1,000-3,000 mg/kg, 3,000-5,000 mg/kg, more than 5,000 mg/kg, more than 5,000 mg/kg and 1,000-3,000 mg/kg, respectively.

Data set [4] deals with fatty liver induced by carbon tetrachloride. Put plainly: Protective effect on fatty liver (carbon tetrachloride). Format: in vivo, rats (SD strain). Conditions: percentage of mean value in carbon tetrachloride alone group, 100 mg/kg/day p.o. for 4 days, control 32.0. The method, then: Carbon tetrachloride also induces fatty liver. Carbon tetrachloride is generally considered to damage microsome and thereby to inhibit protein synthesis and induce fatty liver.
Carbon tetrachloride was subcutaneously administered to 5-6 week-old male rats (SD strain) for 4 days at the dose of 0.5 ml/kg/day.
Simultaneously, the compound of the present invention was orally administered to the rats for 4 days at the dose of 30 mg/kg/day or 100 mg/kg/day.
On the 5th day, the rats were sacrificed by exsanguination.
The controlling (protective) effect was evaluated by determining the content of triglyceride in the liver.
Triglyceride was determined colorimetrically by chromotropic acid method.
Each value represented the percentage of mean value in carbon tetrachloride alone group.

≈ marks a conversion by molar mass, not a printed value. Where two headings read alike, the source gives them in different places.

Take `CC(C)OC(=O)C(C(=O)OC(C)C)=C1SC(O)C(O)S1` (stereo not shown) [Compound 23, diisopropyl 4,5-dihydroxy-1,3-dithiolan-2-ylidenemalonate]: the solubility in the data set “water solubility” (in water at 20° C., read-out: water solubility) came to 2000 µg/mL (≈ 6.2 mM). In data set [1], the p-GPT is on record as 22.5 Karmen units and the “Liver Damage Index” value is listed as 0.0. In data set [2], this compound returned an Alkaline phosphatase activity of 4.0 B-L.V and a p-GPT of 76.0 K.U.

For `COC(=O)C(C(=O)OC)=C1SC(O)C(O)S1` (stereo not shown) [Compound 1], the 50% lethal dose (LD50) in data set [3] fell in the range of 1000 to 3000 mg/kg. Moreover, the solubility in the data set “water solubility” (2% gum arabic aqueous solution, in 2% gum-arabia aqueous solution, read-out: solubility) was found to be 20000 µg/mL (≈ 75.1 mM). Besides, in data set [1], the p-GPT is 23 Karmen units and the “Liver Damage Index” value is 0.0. Further, in data set [2], the Alkaline phosphatase activity is 3.9 B-L.V and the p-GPT stood at 128.0 K.U. This compound also displayed a Triglyceride in data set [4] of 57.5%.

Consider `C=CCOC(=O)C(C(=O)OCC=C)=C1SC(O)C(O)S1` (stereo not shown) [Compound 12, diallyl 4,5-dihydroxy-1,3-dithiolan-2-ylidenemalonate], for which the LD50 in data set [3] was 1000 to 3000 mg/kg. In addition, in the data set “water solubility” (water), the concentration in solution (solubility) came to 2200 µg/mL (≈ 6.91 mM). Moreover, in data set [1], the p-GPT was 63 Karmen units and the “Liver Damage Index” value was determined as 1.0. Besides, in data set [2], the Alkaline phosphatase activity stood at 4.9 B-L.V and the p-GPT came to 19.9 K.U. Also, the Triglyceride in data set [4] was 35.4%.

The solubility is the concentration that dissolves in the medium under given conditions. As usually defined, the LD50 is the dose at which mortality reaches 50%. High values mean lower toxicity, low ones greater toxicity.

The record behind these values is patent US4535075A, “Dithiolane derivative, process for producing the same and use thereof” (Nihon Nohyaku Co., Ltd., priority 1982, dated 1985).
